Here are results for 9 compounds from patent publication US4493839A, “1-Carbapenem-3-carboxylic esters as anti-inflammatory agents” (Merck & Co., Inc., priority 1982, dated 1985).

The experiment concerns the target T1, Human Polymorphonuclear Leukocyte Elastase (Homo sapiens, UniProt P08246).
T1 construct: Crude extract of human polymorphonuclear leukocytes (PMN) containing elastase activity; endogenous in cells; host or cells: human polymorphonuclear leukocytes (crude extract)
T1 sequence (P08246 30-247 limits assumed): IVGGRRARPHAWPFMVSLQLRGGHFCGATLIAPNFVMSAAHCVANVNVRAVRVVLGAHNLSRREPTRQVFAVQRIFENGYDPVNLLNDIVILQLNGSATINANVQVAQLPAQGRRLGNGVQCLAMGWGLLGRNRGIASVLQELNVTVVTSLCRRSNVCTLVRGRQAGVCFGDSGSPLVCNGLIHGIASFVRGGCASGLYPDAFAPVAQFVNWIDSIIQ
The experiment is described as follows: Enzyme assay for the inhibition of human polymorphonuclear leukocyte elastase via hydrolysis of N-t-Boc-alanyl-alanyl-prolylalanine-p-nitroanilide. In kind it is biochemical. The note with it: measured within 2 minutes, crude PMN extract, 0.2 mM Boc-AAPAN, pH 7.5; for inhibition at 20 µg/mL: Conc. 20 μg/ml; for inhibition at 50 µg/mL: Conc. 50 μg/ml; for inhibition at 5 µg/mL: Conc. 5 μg/ml; for inhibition at 0.5 µg/mL: Conc. 0.5 μg/ml; for inhibition at 1 µg/mL: Conc. 1 μg/ml; for inhibition at 2 µg/mL: Conc. 2 μg/ml; for inhibition at 10 µg/mL: Conc. 10 μg/ml. As for the experimental part: Protocol--Enzyme Assays for the Inhibition of Human Polymorphonuclear Leukocyte Elastase Via Hydrolysis of N-t-Boc-alanyl-alanyl-prolylalanine-p-nitroanilide
0.05M TES (N-tris[hydroxymethyl]methyl-2-amino-ethanesulfonic acid) Buffer, pH 7.5.
0.2 mM N-to-Boc-alanyl-alanyl-Prolyl-Alanine-p-nitroanilide (Boc-AAPAN).
To prepare substrate, the solid (m.w. 550) was first dissolved in 10.0 ml DMSO. Buffer at pH 7.5 was then added to a final volume of 100 ml.
Crude extract of human polymorphonuclear leukocytes (PMN) containing elastase activity.
Inhibitors (carbapenem esters) to be tested dissolved in DMSO just before use.
To 1.0 ml of 0.2 mM Boc-AAPAN in a cuvette, 0.01-0.1 ml of DMSO with or without inhibitor was added. After mixing, a measurement was taken at 410 mμ to detect any spontaneous hydrolysis due to presence of test compound. 0.05 Milliliters of PMN extract was then added and the ΔOD/min at 410 mμ was measured and recorded. Beckman model 35 spectrophotometer was used.
The elastase activity in the crude PMN extract may vary from one preparation to another. A control of each new batch is run, and the volume added in the assay procedure is adjusted according to activity.

The structures appear in SMILES notation.

As to `CC=C1C(=O)N2C(C(=O)OCc3ccc([N+](=O)[O-])cc3)=C(SCCN3C(=O)c4ccccc4C3=O)CC12` (stereo not shown), the inhibition (commonly the change of the read-out against control, counted positive when it falls) at 20 µg/mL is 47% and the inhibition at 50 µg/mL came out at 73%.
On the same counts, the results for `CC(O)C1C(=O)N2C(C(=O)OCc3ccc([N+](=O)[O-])cc3)=C(SCc3ccccc3)CC12` (stereo not shown) are 50% and 75%.
For `CC(O)C1C(=O)N2C(C(=O)OCc3ccc([N+](=O)[O-])cc3)=C(SCc3ccccn3)CC12` (stereo not shown), the inhibition at 5 µg/mL amounted to 63% and the inhibition at 20 µg/mL amounted to 100%.
In the case of `CC(O)C1C(=O)N2C(C(=O)OCc3ccc([N+](=O)[O-])cc3)=C(Sc3ccncc3)CC12` (stereo not shown), the inhibition at 0.5 µg/mL was 21%, the inhibition at 1 µg/mL was determined as 72%, the inhibition at 5 µg/mL was determined as 93% and the inhibition at 20 µg/mL was 100%.
Consider `CC(O)C1C(=O)N2C(C(=O)OCc3ccc([N+](=O)[O-])cc3)=C(SCCO)CC12` (stereo not shown), for which testing at 20 µg/mL gave an inhibition of 84% and 50 µg/mL produced 95% inhibition.
`CC(OC(=O)OCc1ccccc1[N+](=O)[O-])C1C(=O)N2C(C(=O)OCc3ccccc3[N+](=O)[O-])=C(c3ccc(CN=[N+]=[N-])cc3)CC12` (stereo not shown) showed an inhibition at 1 µg/mL of 59%, an inhibition at 2 µg/mL of 66%, an inhibition at 5 µg/mL of 74% and an inhibition at 10 µg/mL of 76%. Moreover, the inhibition at 50 µg/mL amounted to 79%.
On to `CC(NC(=O)OCc1ccccc1[N+](=O)[O-])C1C(=O)N2C(C(=O)OCc3ccccc3[N+](=O)[O-])=CCC12` (stereo not shown), for which at 5 µg/mL the inhibition was 23%, the inhibition at 10 µg/mL was determined as 57%, the inhibition at 20 µg/mL stood at 72% and 50 µg/mL produced 82% inhibition.
Regarding `CC(OC(=O)OCc1ccccc1[N+](=O)[O-])C1C(=O)N2C(C(=O)OCc3ccccc3[N+](=O)[O-])=CCC12` (stereo not shown), the inhibition at 0.5 µg/mL stood at 27%, the inhibition at 1 µg/mL was 46%, the inhibition at 2 µg/mL amounted to 78% and the inhibition at 5 µg/mL was determined as 85%. Moreover, the inhibition at 10 µg/mL came to 88% and the inhibition at 20 µg/mL came out at 88%.
In turn, `O=C(OCc1ccccc1)C1=C(SCc2ccccc2)CC2C(CO)C(=O)N12` (stereo not shown) [Benzyl] registered an inhibition at 1 µg/mL of 77%, an inhibition at 5 µg/mL of 90%, an inhibition at 10 µg/mL of 93% and an inhibition at 50 µg/mL of 97%.
